The structures appear in SMILES notation. Values joined by “and” are separate entries in the source; they are usually repeats but may differ in a detail not shown here. Equal entries are not always repeated.

Usually viability, T/C stands for the ratio of treated to control. As usually defined, the IC50 is the midpoint of a concentration-inhibition curve.

The subject of this assay is LG0703-F498-PDC complex spheroid growth. Nature of the assay: Anticancer human tumor LG0703-F498-PDC patient-derived lung adenocarcinoma cell line growth inhibition [AhR]. Particulars: for viability, T/C: stronger effect = lower value. The text has this: Multicellular complex tumor spheroid response to aryl hydrocarbon receptor antagonists in combination with a variety of drugs and investigational agents in selected tumor cell lines
The current study was undertaken to assess response to aryl hydrocarbon receptor antagonists in combination with standard-of-care drugs and investigational agents in solid tumor complex spheroid models. Complex spheroids include a stromal component modeled by human endothelial cells (HUVEC) and fibroblasts modeled by human mesenchymal stem cells (MSCs). The concentration ranges selected for each drug and investigational agent were based upon clinically achievable concentrations if the clinical Cmax of the agent was known.
Compounds. The drugs and investigational agents: BAY 2416964 (NSC825713), GNF351 (NSC835774), CH-223191 (NSC835775), CPI-455 (NSC825282), aza-TdCyd (NSC777586), decitabine (NSC127716), belinostat (NSC758774), entinostat (NSC756642), pevonedistat (NSC761192), tazemetostat (NSC777109), talazoparib (NSC765396), olaparib (NSC753686), selinexor (NSC780203), nedisertib (M3814, NSC802822), bortezomib (NSC756655), venetoclax (NSC766270), doxorubicin (NSC123127), elimusertib (BAY189344, NSC800525), ceralasertib (AZD6738, NSC777638), TAK-243 (NSC785004), alisertib (NSC759677), etoposide (NSC141540), topotecan (NSC609699), eribulin (NSC707389), gemcitabine (NSC613327), carboplatin (NSC241240), cisplatin (NSC119875), and SN-38 (NSC673596) were obtained from the National Cancer Institute (NCI) Developmental Therapeutics Program Chemical Repository (32). The FDA-approved anticancer drug set is available from the Developmental Therapeutics Program at https://dtp.cancer.gov/organization/dscb/obtaining/available plates.htm. […] The stock solutions were prepared in dimethyl sulfoxide (DMSO, Sigma-Aldrich, St. Louis, MO, cat. D2650), except for the platinum compounds which were prepared in saline (Quality Biological, Gaithersburg, MD, cat. 114-055-101), at 800-fold the tested concentration and stored at -70 degrees C prior to their use. All drugs and investigational agents were tested over a range starting from a high concentration at or near the clinical Cmax and decreasing in half-log increments. If the clinical Cmax for an agent had not been determined, the highest concentration tested was 10 microM (Table 1).
Cell Culture. All cells were maintained in an incubator at 37 degrees C and 5% CO2 with 95% humidity. The PDC lines were cultured according to standard operating procedures established by the NCI PDMR (https://pdmr.cancer.gov). Briefly, all PDCs were thawed and cultured in Matrigel-coated flasks prepared with a working solution of 1X Ham's F-12 nutrient mix, without supplementation (Invitrogen, Waltham, MA, cat. 11765054), 100 U/mL penicillin-streptomycin (Invitrogen, cat. 15140122), and 2.5% Matrigel (Corning Inc., Corning, NY, cat. 354248) for the first three passages. All PDCs were cultured in complete DMEM/F-12 media containing advanced DMEM/F-12 (Invitrogen, cat. 12634028), 4.9% defined fetal bovine serum, heat inactivated (HyClone Laboratories Inc., Logan, UT, cat. SH30070.03HI), 389 ng/mL hydrocortisone (Sigma-Aldrich, cat. H4001), 9.7 ng/mL human EGF recombinant protein (Invitrogen, cat. PHG0313), 23.4 microg/mL adenine (Sigma-Aldrich, cat. A2786), 97.3 U/mL penicillin-streptomycin (Invitrogen, cat. 15140122), 1.9 mM L-glutamine (Invitrogen, cat. 25030081), and 9.7 microM Y-27632 dihydrochloride (Tocris Bioscience, Bristol, United Kingdom, cat. 1254). The PDCs were cultured in complete DMEM/F12 media without 10 microM Y-27632 dihydrochloride for at least two passages prior to the screen. The established cell lines NCI-H1341 and […] were cultured in DMEM/F-12, HEPES (Invitrogen, cat. 11330032), 5% defined fetal bovine serum (HyClone Laboratories Inc., cat. SH30070.03), ITS premix universal culture supplement [insulin (5 microg/mL), transferrin (5 microg/mL), and selenious acid (5 ng/mL)] […]

Where [1] appears, read: curve of first compound, second compound 0.1 µM.
Where [2] appears, read: curve of first compound, second compound 0.316 µM.
Where [3] appears, read: curve of first compound, second compound 1 µM.
The mark [4] stands for this setting: curve of first compound, second compound 3.16 µM.
Setting [5] is: curve of first compound, second compound 10 µM.
Setting [6] is: second compound 0.1 µM, first compound 0.0316 µM.
Setting [7] is: second compound 0.1 µM, first compound 0.1 µM.
Where [8] appears, read: second compound 0.1 µM, first compound 0.316 µM.
Setting [9] is: second compound 0.1 µM, first compound 1 µM.
Where [10] appears, read: second compound 0.316 µM, first compound 0.0316 µM.
[11] abbreviates: second compound 0.316 µM, first compound 0.1 µM.
Setting [12] is: second compound 0.316 µM, first compound 0.316 µM.
The mark [13] stands for this setting: second compound 0.316 µM, first compound 1 µM.
[14] abbreviates: second compound 1 µM, first compound 0.0316 µM.
[15] abbreviates: second compound 1 µM, first compound 0.1 µM.
The mark [16] stands for this setting: second compound 1 µM, first compound 0.316 µM.
Where [17] appears, read: second compound 1 µM, first compound 1 µM.
[18] abbreviates: second compound 3.16 µM, first compound 0.0316 µM.
Where [19] appears, read: second compound 3.16 µM, first compound 0.1 µM.
Setting [20] is: second compound 3.16 µM, first compound 0.316 µM.
Where [21] appears, read: second compound 3.16 µM, first compound 1 µM.
Setting [22] is: second compound 10 µM, first compound 0.0316 µM.
[23] abbreviates: second compound 10 µM, first compound 0.1 µM.
The mark [24] stands for this setting: second compound 10 µM, first compound 0.316 µM.
[25] abbreviates: second compound 10 µM, first compound 1 µM.
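Further: luminescence taken as a proxy for viable cell amount.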
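Wherever viability, T/C is given: percent of DMSO vehicle control where 100% means growth equal to vehicle.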

As to `CC(C)c1c(-c2ccccc2)nc2c(C#N)c[nH]n2c1=O`, the viability, T/C is, setting by setting: (compound 0.0316 µM) 101% and 99.1% and 108%; (compound 0.1 µM) 96.1% and 98.3% and 103%; (compound 0.316 µM) 105% and 107% and 103%; (compound 1 µM) 87% and 102% and 104%; (compound 3.16 µM) 88.2% and 91.2% and 91.7%; (compound 10 µM) 99.6% and 90.7% and 93.6%. Moreover, the IC50 (curve of compound) is > 10000 nM.

Consider `CC(CO)NC(=O)c1cc(-c2ccc(Cl)cc2)nn(-c2cnn(C)c2)c1=O` (stereo not drawn), for which the viability, T/C was 87.9% [middle of 21 runs] (compound 1 µM) and 77% [middle of 19 runs] (compound 10 µM). The IC50 (compound alone, run of 05/31/2022) is > 10000 nM.

As for `CC1COCCN1c1cc(C2(S(C)(=N)=O)CC2)nc(-c2ccnc3[nH]ccc23)n1` (stereo not drawn), the viability, T/C by setting is: (compound 0.0316 µM) 91% and 100% and 107%; (compound 0.1 µM) 108% and 96.2% and 104%; (compound 0.316 µM) 87.9% and 110% and 96.5%; (compound 1 µM) 97.9% and 98.4% and 97.6%; (compound 3.16 µM) 87.5% and 110% and 95.1%; (compound 10 µM) 65.4% and 71% and 64.8%. Further, the IC50 (curve of compound) is > 10000 nM.

As to `COc1ccc([C@@H](O)c2cc(-c3ncnc4cc(N5CCOCC5)ccc34)c(F)cc2Cl)nn1`, the viability, T/C reads like this: (compound 0.0316 µM) 97% and 89.7% and 103%; (compound 0.1 µM) 94.4% and 103% and 102%; (compound 0.316 µM) 94.6% and 103% and 100%; (compound 1 µM) 93.6% and 93.9% and 90%; (compound 3.16 µM) 75.6% and 76.3% and 67.8%; (compound 10 µM) 26.7% and 26.9% and 26.5%. In addition, the IC50 (curve of compound) was 5770 nM and 5830 nM and 5190 nM.

On to `Cc1ccccc1N=Nc1ccc(NC(=O)c2ccnn2C)c(C)c1`, for which the viability, T/C is 90.5% [middle of 20 runs] (compound 1 µM) and 85.7% [middle of 20 runs] (compound 3.16 µM). Moreover, the IC50 (compound alone, run of 06/14/2022) is > 10000 nM.

As to `Cc1cncc(-c2nc(NCCc3c[nH]c4ccccc34)c3ncn(C(C)C)c3n2)c1`, the viability, T/C (compound 10 µM) is 0.88% [middle of 19 runs].

As to `COc1cccc2c1C(=O)c1c(O)c3c(c(O)c1C2=O)CC(O)(C(=O)CO)CC3OC1CC(N)C(O)C(C)O1` (stereo not drawn) + CC(CO)NC(=O)c1cc(-c2ccc(Cl)cc2)nn(-c2cnn(C)c2)c1=O, the IC50 reads like this: under setting [1], 770 nM; under setting [2], 523 nM; under setting [3], 547 nM; under setting [4], 459 nM; under setting [5], 360 nM. The viability, T/C runs as follows: under setting [6], 82.7%; under setting [7], 80.6%; under setting [8], 72.2%; under setting [9], 43%; (second compound 0.1 µM, first compound 3.16 µM) 14.2%; (second compound 0.1 µM, first compound 10 µM) 1.2%. The viability, T/C was 84.3% under setting [10]; 84.2% under setting [11]; 58.4% under setting [12]; 36% under setting [13]; 12.7% (second compound 0.316 µM, first compound 3.16 µM); 0.83% (second compound 0.316 µM, first compound 10 µM). Further, the viability, T/C under setting [14] is 86.7%; the viability, T/C under setting [15] is 89.6%; the viability, T/C under setting [16] is 61.6%; the viability, T/C under setting [17] was 34.7%; the viability, T/C (second compound 1 µM, first compound 3.16 µM) is 10%; the viability, T/C (second compound 1 µM, first compound 10 µM) is 0.76%. Also, the viability, T/C is 82.7% under setting [18]; 84.8% under setting [19]; 59.3% under setting [20]; 27.4% under setting [21]; 4.74% (second compound 3.16 µM, first compound 3.16 µM); 1.92% (second compound 3.16 µM, first compound 10 µM). Further, the viability, T/C under setting [22] is 71.3%; the viability, T/C under setting [23] was 73.8%; the viability, T/C under setting [24] was 54.1%; the viability, T/C under setting [25] was 13.9%; the viability, T/C (second compound 10 µM, first compound 3.16 µM) was 0.65%; the viability, T/C (second compound 10 µM, first compound 10 µM) was 0.96%.

With `Nc1ncn(C2CC(O)C(CO)O2)c(=O)n1` (stereo not drawn) + CC(CO)NC(=O)c1cc(-c2ccc(Cl)cc2)nn(-c2cnn(C)c2)c1=O, the IC50 is > 1000 nM under setting [1]; > 1000 nM under setting [2]; > 1000 nM under setting [3]; > 1000 nM under setting [4]; > 1000 nM under setting [5]. In addition, the viability, T/C by setting is: (second compound 0.1 µM, first compound 0.00316 µM) 85.3%; (second compound 0.1 µM, first compound 0.01 µM) 99.4%; under setting [6], 84.8%; under setting [7], 91.1%; under setting [8], 85.9%; under setting [9], 78%. In addition, the viability, T/C (second compound 0.316 µM, first compound 0.00316 µM) was 81.5%; the viability, T/C (second compound 0.316 µM, first compound 0.01 µM) is 91.9%; the viability, T/C under setting [10] was 82.2%; the viability, T/C under setting [11] is 87.5%; the viability, T/C under setting [12] is 79.2%; the viability, T/C under setting [13] was 76.5%. The viability, T/C was 83.5% (second compound 1 µM, first compound 0.00316 µM); 106% (second compound 1 µM, first compound 0.01 µM); 78.5% under setting [14]; 79.5% under setting [15]; 71.7% under setting [16]; 77.4% under setting [17]. The viability, T/C (second compound 3.16 µM, first compound 0.00316 µM) is 78.7%; the viability, T/C (second compound 3.16 µM, first compound 0.01 µM) was 80%; the viability, T/C under setting [18] was 88.4%; the viability, T/C under setting [19] was 67.9%; the viability, T/C under setting [20] is 80.5%; the viability, T/C under setting [21] was 71.8%. For the same compound, the viability, T/C is, setting by setting: (second compound 10 µM, first compound 0.00316 µM) 87.4%; (second compound 10 µM, first compound 0.01 µM) 80.2%; under setting [22], 79.3%; under setting [23], 80.3%; under setting [24], 69.9%; under setting [25], 72.7%.

The values above are taken from PubChem BioAssay AID1919013 (Molecular Pharmacology Branch, DTP, NCI, 2023).
